Non-standard residues stand in square brackets, D forms with d. Residues, ends and D or L forms follow the SMILES beside them. *: point of attachment. Sta = CC(C)C[C@H](N)[C@@H](O)CC(=O)O; Isovaleryl = CC(C)CC(=O)*; Cbz = O=C(OCc1ccccc1)*; CH2F = FC*

The values below come from patent US20190117685A1, “PROCESS FOR THE IDENTIFICATION OF COMPOUNDS FOR TREATING CANCER” (FUNDACIÓN CENTRO NACIONAL DE INVESTIGACIONES ONCOLÓGICAS …, priority 2009, published 2019).

In data set [1] the test system is SK-Mel-147. Briefly: Cell death by trypan blue exclusion, SK-Mel-147. Type of data set: cell-based, human. As to conditions: for effect of antioxidant on cell death by BO-110: BO-110 plus ROS scavenger.
For data set [2], the system named is SK-Mel-103. Briefly: Cell death by trypan blue exclusion, SK-Mel-103. Type of data set: cell-based, human.
Data set [3] has as its system SK-Mel-103 cells. Briefly: Confocal microscopy of autolysosomes, lysosomal activity and endosomes. Type of data set: cell-based, human. The text has this: An eGFP-LC3 fusion cloned into the pCNA expression vector was a gift from Gabriel Nidiez (University of Michigan Cancer Center). eGFP-LC3 and the fragments eGFP-Rab7wt, eGFP-Rab7 T22N, eGFP-Rab5wt, eGFP-Cherry-LC3 and Cherry-LC3 were cloned into the pLVO-puro lentiviral vector for stable gene transfer. Melanoma derived cells (i.e., SK-Mel-103) were infected with pLVO-eGFP-LC3 and selected with puromycin. GFP-LC3-associated fluorescence emission was imaged using a LEICA™ AF6000 fluorescence microscope and images were analyzed by LAS AF V1.9 (Leica, Solms, Germany). […] Images were analyzed by LCS (Leica, Solms, Germany). […] Co-localization images were analyzed with LAS AF V1.9 (Leica, Solms, Germany). […]
To independently monitor lysosomal activity during BO-110 treatment, cells were tested for the ability to process DQ-BSA (a derivative of BSA whose green fluorescence is quenched unless cleaved by proteolytic enzymes). […] Note that DQ-BSA emission was detected at the lysosomes, as indicated by colocalization with LYSOTRACKER® Red, a dye whose cell permeability is pH dependent and emits red fluorescence when incorporated into functional lysosomes acids). […]
Having determined that autophagosomes fuse to active lysosomes in response to BO-110, we assessed whether these organelles interacted with or were recruited to endosomes.

Data set [4] deals with SK-Mel-103 melanoma cells. Briefly: GFP-LC3 foci fluorescence analysis of autophagy. The class given is cell-based, human. The settings on record: with BO-110 treatment, 12 h. The procedure: An eGFP-LC3 fusion cloned into the pCNA expression vector was a gift from Gabriel Nidiez (University of Michigan Cancer Center). eGFP-LC3 and the fragments eGFP-Rab7wt, eGFP-Rab7 T22N, eGFP-Rab5wt, eGFP-Cherry-LC3 and Cherry-LC3 were cloned into the pLVO-puro lentiviral vector for stable gene transfer. […] GFP-LC3-associated fluorescence emission was imaged using a LEICA™ AF6000 fluorescence microscope and images were analyzed by LAS AF V1.9 (Leica, Solms, Germany). For confocal real time microscopy, we used a LEICA™ TCS-SP2-AOBS-UV ultra-spectral microscope coupled to a CO2 and temperature-controlled incubation chamber. Images were analyzed by LCS (Leica, Solms, Germany). […] Co-localization images were analyzed with LAS AF V1.9 (Leica, Solms, Germany).
To address the role of autophagy in the response of melanoma to drugs, a discriminative analysis based in GFP-LC3 was used to screen commercially available chemotherapeutic drugs and immunomodulators. Melanoma cells were stably transfected with lentiviral vectors expressing derivatives of the autophagosomal LC3 marker with GFP, such as pLVO-eGFP-LC3.
Subsequent validation studies were performed on a panel of human cell lines of diverse genetic background (see below).

The test system of data set [5] is SK-Mel-28. In words: Cell death by trypan blue exclusion, SK-Mel-28. Type of data set: cell-based, human. The settings on record: doxorubicin 0.5 μg/ml, 30 h. As for the experimental part:
(§1) Cell viability assays in response to drug treatments were done after seeding melanocytes and melanoma cells at least 12 hours before drug treatment. The percentage of cell death at the indicated times and treatment concentrations was estimated by standard trypan blue exclusion assays as previously described (Wolter et al., 2007; Fernández et al., 2005).

Data set [6] has as its system SK-Mel-19. Briefly: Cell death by trypan blue exclusion, SK-Mel-19. The class given is cell-based, human. As to conditions: doxorubicin 0.5 μg/ml, 30 h. The procedure: as §1
For data set [7], the system named is MDA-5. In words: MDA-5 proteolytic cleavage by immunoblotting. The class given is cell-based, human. The settings on record: SK-Mel-28 and SK-Mel-147 cell extracts. For orientation: Immunoblotting shows a protein as a band on a membrane.
Experimental: This analysis was carried out by immunoblotting extracts from SK-Mel-28 and SK-Mel-147 cells treated with PEI, pIC or BO-110, after subjecting these extracts to electrophoresis. As a positive control for efficient induction of cell death bortezomib was used.
The test system of data set [8] is NOXA. Briefly: NOXA protein levels by immunoblotting and densitometry. Type of data set: cell-based, human. As to conditions: SK-Mel-28 or SK-Mel-147 melanoma cells.
The subject of data set [9] is MCL-1. In words: MCL-1 protein levels by immunoblotting. Type of data set: cell-based, human. As to conditions: melanoma cells. The procedure: To determine changes in protein levels, 2×10^6 cells were treated as indicated and harvested at different times after treatment. Total cell lysates were subjected to electrophoresis in 10, 12 or 4-15% gradient SDS gels under reducing conditions, and subsequently transferred to IMMOBILON-P® (0.45 um pore size hydrophobic polyvinylidene fluoride, PVDF) membranes (Millipore, Bedford, Mass., USA). Protein bands were detected by the ECL system (GE Healthcare, Buckinghamshire, UK).
Secondary antibodies were either anti-mouse or anti-rabbit from GE Healthcare. Image J was used to quantify changes in proteins levels induced by the different treatments, considering untreated controls as reference for basal expression.
To assess similarities and differences between bortezomib and pIC (naked or complexed with PEI), melanoma cells were incubated with each of these compounds and extracts were collected at different time points after treatment to assess the levels of NOXA, MCL-1, and other Bcl-2 family members (Bcl-xL or Bcl-2). Results are shown in FIGS. 9A, 9B, 9C, 9D, 9E, and 9F.

Data set [10] has as its system SK-Mel-103 cells. In words: Ultrastructural analysis by transmission electron microscopy. The class given is cell-based, human. The settings on record: 5-12 h after treatment. The procedure: For transmission electron microscopy (TEM), the indicated cell populations were rinsed with […] buffer, pH 7.5 and fixed in 2.5% glutaraldehyde for 1.5 h, and subsequently dehydrated and embedded in Spurr's resin. Then, the block was sectioned at 60-100 nm ultra thin sections and picked up on copper grids. For routine analysis ultrathin sections were stained with 2% uranyl acetate and lead citrate. Electron micrographs were acquired with a Philips CM-100 transmission electron microscope (FEI, Hillsbrough, Oreg.) and a KODAK™ 1.6 MEGAPLUS™ digital camera.
The GFP-LC3 focal staining in cells treated with BO-110 described in the previous paragraph is consistent with the formation of autophagosomes. However, to rule out possible unspecific aggregations of ectopically expressed GFP-LC3 (Klionsky et al., 2008), the response was analyzed independently by electron microscopy (FIG. 1D).

Data set [11] concerns melanoma cell lines (SK-Mel-19, -28, -103, -147, and B16). Briefly: Cell death by trypan blue exclusion, melanoma cell lines. As to conditions: naked pIC versus PEI-complexed pIC. The class given is cell-based, human and murine. As for the experimental part:
as §1
With these lines, tests were conducted similar to those described in Example 1 for SK-Mel-103 cell line, to verify the sensitivity of each of these cells to pIC and PEI as independent agents or used in combination.

Data set [12] concerns IFIT-1. In words: IFIT-1 mRNA by quantitative PCR, B16 melanoma cells. The class given is cell-based, mouse. As for the experimental part:
(§2) Human interferon alpha was measured in culture supernatants by enzyme-linked immunoabsorbent assay (ELISA). The human IFN-α ELISA Kit and recombinant hIFN-α were purchased from PBL Interferon Source (Piscataway, N.Y.) and used according to the manufacturer's protocol. IFN-α expression level was measured from bone-marrow-derived macrophages (BMDMs) and B16 melanoma cells by real-time PCR. BMDMs were prepared, plated and treated as previously described (Celada et al., 1984). Real-time quantitative PCR analysis of IFIT-1 RNA transcripts was performed using TAQMAN® primer and probes obtained from Applied Biosystems on an Applied Biosystems 7700 sequence detector after normalization with […].
(§3) pIC is a classical inducer of IFN-driven cellular immunity (Wenzel et al., 2008). […] To assess this possibility, B16 melanoma cells and macrophages were tested for their ability to secrete and respond to IFN-α. […] This is expected, as these cells can efficiently sense viral dsRNA.

Data set [13] relates to IFIT-1. Briefly: IFIT-1 mRNA by quantitative PCR, bone-marrow-derived macrophages. The class given is cell-based. As for the experimental part: as §2, §3
The subject of data set [14] is melanoma. The settings on record: naked pIC, clinical studies (Robinson et al., 1976); cited from earlier work.
[15] abbreviates: 20 hours after treatment with BO-110.

For `O=S(=O)([O-])c1cc(O)c(O)c(S(=O)(=O)[O-])c1.[Na+].[Na+]` [TIRON™], the “effect of antioxidant on cell death by BO-110” value (“effect of antioxidant” for short) in data set [1] is “no significant effects”.

In the case of `CC(C)CC(=O)N[C@H](C(=O)N[C@H](C(=O)N[C@@H](CC(C)C)[C@@H](O)CC(=O)N[C@@H](C)C(=O)N[C@@H](CC(C)C)[C@@H](O)CC(=O)O)C(C)C)C(C)C` [pepstatin A] (Isovaleryl-VV[Sta]A[Sta]-OH), the “reduction of the extent of cell death by BO-110” value in data set [2] (setting [15]) is reported as 50%.

Consider IFN-α, for which the “effect on melanoma cell viability” value in data set [2] (high doses, 10 times over levels secreted after BO-110, 24 h) was “unable to affect melanoma cell viability”.

Take `CCOC(=O)[C@H]1O[C@@H]1C(=O)N[C@@H](CC(C)C)C(=O)NCCC(C)C` [E64d]: in data set [2] (setting [15]), the “reduction of the extent of cell death by BO-110” value worked out at 50%.

With `Cc1c(C)c2c(c(C)c1O)CCC(C)(C(=O)O)O2` (stereo not drawn) [TROLOX™], the “effect of antioxidant” value in data set [1] is on record as “no significant effects”.

With `CCN(CC)CCCC(C)Nc1ccnc2cc(Cl)ccc12` (stereo not drawn) [chloroquine, Chloroquine], the “inhibitory effect on cell death triggered by BO-110” value in data set [2] (setting [15]) is given as “blocked melanoma cell death triggered by BO-110”. Further, in data set [3], the “lysosomal proteolysis: DQ-BSA cleavage” value was “minimum of fluorescence emission due to DQ-BSA”. For the same compound, the “effect of autophagy inhibitor on GFP-LC3 foci / autophagosomes induced by BO-110” value in data set [4] is “autophagosomes accumulated”.

On to vitamin E, for which, in data set [1], the “effect of antioxidant” value is listed as “no significant effects”.

Turning to `COC(=O)C[C@H](NC(=O)[C@H](C)NC(=O)[C@@H](NC(=O)OCc1ccccc1)C(C)C)C(=O)CF` [z-VAD-fmk] (Cbz-Val-Ala-Asp(OMe)-CH2F), the “inhibition of BO-110 killing” value in data set [1] (SK-Mel-147, BO-110 plus pan-caspase inhibitor) was determined as 70%.

In the case of `COc1cccc2c1C(=O)c1c(O)c3c(c(O)c1C2=O)C[C@@](O)(C(=O)CO)C[C@@H]3O[C@H]1C[C@H](N)[C@H](O)[C@H](C)O1` [DOX, doxorubicin], the “DOX: response to doxorubicin, percentage of cell death” value is reported as “− (<30%)” in data set [2] (SK-Mel-103, doxorubicin 0.5 μg/ml, 30 h); “− (<30%)” in [5]; “− (<30%)” in [1] (SK-Mel-147, doxorubicin 0.5 μg/ml, 30 h); “++ (100-70)” in data set [6].

In the case of `CC(C)C[C@H](NC(=O)[C@H](Cc1ccccc1)NC(=O)c1cnccn1)B(O)O` [bortezomib, Bortezomib], the “induction of MDA-5 processing (30 kD band)” value in data set [7] is on record as “no effect on MDA-5 levels or processing”. The “NOXA induction (in words)” value in data set [8] is “activates NOXA potently”. Also, in data set [9], the MCL-1 levels result is recorded as “induces a simultaneous accumulation of MCL-1”.

In the case of `Cn1cnc(N)c2ncnc1-2` [3-MA, 3-methyladenine], the “effect of autophagy inhibitor on GFP-LC3 foci / autophagosomes induced by BO-110” value in data set [4] was “blocked GFP-LC3 foci formation by BO-110”.

Consider polyinosine-polycytidylic acid [pIC], for which the “autophagosome formation (electron microscopy)” value in [10] was “minimal activity as inducer of autophagy”. Moreover, the “induction of MDA-5 processing (30 kD band)” value in data set [7] was “significantly lower levels”. In data set [11], the “reduction of antimelanoma activity of pIC when PEI was not included” value was 70-80%. In addition, the “induction of IFN target IFIT-1” value in data set [12] is reported as “unable to induce IFIT-1”. Besides, the “induction of IFN target IFIT-1” value in [13] is “PEI was dispensable for pIC-mediated induction of IFN targets”. Also, the “NOXA induction (in words)” value in data set [8] is reported as “failed to induce NOXA consistently or in a sustained manner”. Further, in data set [14], the “antitumoral effect for melanoma” value was “absence of antitumoral effect for melanoma”, the “induction of IFN” value is listed as “low induction of IFN” and the stability result is listed as “low stability”.
